Measurements as given in publication PMC12193833, “Toxicity Assessment and Antifungal Potential of Copper(II) and Silver(I) Complexes with 1,10-Phenanthroline-5,6-dione Against Drug-Resistant Clinical Isolates of Cryptococcus gattii and Cryptococcus neoformans” (Journal of Fungi, 2025).
Values after ≈ are worked out from the molar mass of the structure shown.

Tests used:
[1] = test system: G. mellonella larvae; design: method as in PMID 32265890; conditions: cited from earlier work
[2] = test system: G. mellonella; conditions: cited from earlier work
[3] = test system: C. neoformans clinical isolates; test: Susceptibility to clinically available antifungals, CLSI M27-A3 microdilution; assay type: cell-based; conditions: Cryptococcus neoformans
Text: (§1) Six clinical isolates belonging to the Cryptococcus genus were obtained from patients who attended the Instituto Nacional de Infectologia Evandro Chagas (INI), Fundação Oswaldo Cruz (FIOCRUZ), and were kindly provided by Dr. Rodrigo Almeida-Paes (INI-FIOCRUZ). To comply with ethical standards and institutional agreements between UFRJ and FIOCRUZ, patient data were not disclosed. In this sense, the C. neoformans isolates were designated CFP00213 (213), CFP00223 (223), and CFP00350 (350), while the C. gattii isolates were labeled CFP00023 (23), CFP00025 (25), and CFP00027 (27). Before each experiment, an aliquot of the culture was transferred from Sabouraud dextrose agar (2% glucose, 1% peptone, and 0.5% yeast extract) to RPMI 1640 medium (Sigma-Aldrich, St. Louis, MO, USA), pH 7.2, buffered with 0.165 M MOPS (Sigma-Aldrich, St. Louis, MO, USA). RPMI medium induces the expression of capsular polysaccharides, the primary virulence factor of Cryptococcus cells. The cultures were incubated at 37 °C for 48 h to promote cell proliferation, stimulate metabolic activation, and enhance capsular development. Yeast cell counts were determined using a Neubauer chamber.
(§2) The susceptibility profile was evaluated using the microdilution method in RPMI 1640 medium buffered with 0.165 M MOPS, following the M27-A3 protocol for yeasts established by the Clinical and Laboratory Standards Institute (CLSI). […] Each fungal isolate was classified as either wild-type or non-wild-type for each antifungal based on the epidemiological cutoff values provided in CLSI M59 ED3, 2020 [32].

[4] = test system: C. gattii clinical isolates; test: as above; assay type: cell-based; conditions: Cryptococcus gattii
Text: as §1, §2

[5] = test system: six clinical Cryptococcus isolates; test: Susceptibility to clinically available antifungals, all six isolates; assay type: cell-based, Cryptococcus neoformans and Cryptococcus gattii
Text: as §1, §2

[6] = 24 h, C. neoformans isolate 213, 37 °C
[7] = 24 h, C. neoformans isolate 223, 37 °C
[8] = 24 h, C. neoformans isolate 350, 37 °C
[9] = C. neoformans isolate 213, value in brackets
[10] = C. neoformans isolate 223, value in brackets
[11] = C. neoformans isolate 350, value in brackets
[12] = 24 h, C. gattii isolate 23, 37 °C
[13] = 24 h, C. gattii isolate 25, 37 °C
[14] = 24 h, C. gattii isolate 27, 37 °C
[15] = C. gattii isolate 23, value in brackets
[16] = C. gattii isolate 25, value in brackets
[17] = C. gattii isolate 27, value in brackets

Row | Compound | RNA levels encoding transferrin and inducible metalloproteinase inhibitor protein (IMPI) [2] | MIC [3, 6] [µg/mL] | MIC [3, 7] [µg/mL] | MIC [3, 8] [µg/mL] | MIC [3, 9] [µM] | MIC [3, 10] [µM] | MIC [3, 11] [µM] | MIC [4, 12] [µg/mL] | MIC [4, 13] [µg/mL] | MIC [4, 14] [µg/mL] | MIC [4, 15] [µM] | MIC [4, 16] [µM] | MIC [4, 17] [µM] | other results
1 | {[Cu(3,6,9-trioxaundecanedioic acid)(1,10-phenanthroline)2]3H2O·EtOH}n | – | – | – | – | – | – | – | – | – | – | – | – | – | Mortality rate in G. mellonella larvae ([1]; 750 µg/mL): 60%; Toxicity in G. mellonella larvae ([1]; up to 500 µg/mL, within 72 h): no toxicity
2 | {[Mn(3,6,9-trioxoundecanedioic acid)(1,10-phenanthroline)2]·3H2O·EtOH}n | increased | – | – | – | – | – | – | – | – | – | – | – | – | –
3 | O.O.O.O.O=C([O-])c1cccc(C(=O)[O-])c1.O=C([O-])c1cccc(C(=O)[O-])c1.[Mn+2].[Mn+2].c1cnc2c(c1)ccc1cccnc12.c1cnc2c(c1)ccc1cccnc12.c1cnc2c(c1)ccc1cccnc12 [[Mn2(isophthalic acid)2(1,10-phenanthroline)3]·4H2O] | increased | – | – | – | – | – | – | – | – | – | – | – | – | –
4 | C[C@@H]1[C@H](O)[C@@H](C)/C=C/C=C/C=C/C=C/C=C/C=C/C=C/[C@H](O[C@@H]2O[C@H](C)[C@@H](O)[C@H](N)[C@@H]2O)C[C@@H]2O[C@](O)(C[C@@H](O)C[C@@H](O)[C@H](O)CC[C@@H](O)C[C@@H](O)CC(=O)O[C@H]1C)C[C@H](O)[C@H]2C(=O)O [Amphotericin B, amphotericin B] | – | 0.03 | > 16 | 0.03 | 0.03 | > 17.3 | 0.03 | 0.03 | 0.03 | 0.03 | 0.03 | 0.03 | 0.03 | MIC ([5]; all other Cryptococcus isolates (except C. neoformans isolate printed as 233)): 0.03 µg/mL (≈ 0.0325 µM)
5 | Nc1[nH]c(=O)ncc1F [Flucytosine, flucytosine] | – | 4 | 64 | 16 | 30 | 496 | 124 | 0.125 | 4 | 4 | 0.96 | 30 | 30 | –
6 | O.O.O.O.O.O=C([O-])c1ccc(C(=O)[O-])cc1.[Mn+2].c1cnc2c(c1)ccc1cccnc12.c1cnc2c(c1)ccc1cccnc12 [[Mn(terephthalic acid)(1,10-phenanthroline)2]·5H2O] | increased | – | – | – | – | – | – | – | – | – | – | – | – | Gallerimycin expression [2]: upregulated
7 | CC[C@H](C)C[C@H](C)CCCCCCCCC(=O)N[C@H]1C[C@@H](O)[C@@H](NCCN)NC(=O)[C@@H]2[C@@H](O)CCN2C(=O)[C@H]([C@H](O)CCN)NC(=O)[C@H]([C@H](O)[C@@H](O)c2ccc(O)cc2)NC(=O)[C@@H]2C[C@@H](O)CN2C(=O)[C@H]([C@@H](C)O)NC1=O [Caspofungin, caspofungin] | – | > 8 | > 8 | > 8 | > 7.3 | > 7.3 | > 7.3 | > 8 | > 8 | > 8 | > 7.3 | > 7.3 | > 7.3 | Hemocyte density [2]: do not increase hemocyte density; MIC ([5]; across all six clinical Cryptococcus isolates): > 8 µg/mL
